By Tmax is commonly meant the time at which the peak concentration occurs.

What all share (type): in vivo
Data set [1] has as its system 5×FAD mice. In words: Contextual fear conditioning. Particulars: 50 mg/kg oral daily 4 months, P<0.05. The procedure:
Male 5×FAD mice were purchased from Jackson laboratories (Stock number 006554) and maintained at 23±2° C. temperature, 60±15% relative humidity with free access to food and water ad libitum. 5×FAD male mice were inbred with wild-type (WT, C57/BL6) female mice to produce heterozygous offspring. Offspring were genotyped to select 5×FAD (APP KM670/671NL (Swedish), APP I716V (Florida), APP V717I (London), PSEN1 M146L (A>C), PSEN1 L286V) gene mutations mice. Two months old WT and 5×FAD mice (male and female, n=10-14 per group) were treated daily with vehicle (1% sodium carbonyl methylcellulose [CMC-Na; Sigma-Aldrich, C5678]), curcumin analogue C1 (5 mg/kg, 10 mg/kg) or curcumin (50 mg/kg; Sigma-Aldrich, 08511) suspended in 1% CMC-Na by oral gavage for 4 months.
Contextual fear conditioning (CFC) was used to evaluate the fear memory reconsolidation of 5×FAD mice after treatment. The experiment was conducted 30 min after the drug treatment in ANY maze fear conditioning system under licensed ANY maze tracking system connected to a Windows XP computer. A digital camera was installed on each chamber and signals were sent to the computer for analysis. The experiments were conducted in two sound proof chambers. All the experiments were conducted with continuous 40 units of white noise and 40 lux white light. During training, mice were allowed to explore the platform for 2.5 min and then received 3 repeated footshock cycles (30 s) at 30 s intervals, each started with a cue tone (28 s, 1500 Hz) and ended by a footshock ([…], 2 s). On the second day the mice were allowed to explore the platform for 3 min followed by a cue tone (30 s, 1500 Hz) without footshock, and the freezing time was recorded. Contextual fear memory formation and the subsequent remote memory stabilization were evaluated by scoring freezing index (the absence of all but respiratory movement).

Data set [2] concerns APP, CTFs, phosphorylated Tau, total Tau, TFEB, LC3-II. In words: Western blotting of hippocampus, female 3×Tg mice. Conditions: 50 mg/kg oral 7 months. The procedure: (§1) Homozygous 3×Tg mice (APP KM670/671NL (Swedish), MAPT P301L, PSEN1 M146V) were produced in Hong Kong Baptist University animal house and maintained at 23±2° C. temperature, 60±15% relative humidity with free access to food and water ad libitum.
(§2) Brain tissues were lysed with RIPA buffer (TBS with 1% NP-40, 1% sodium deoxycholic acid, 0.1% SDS, and protease phosphatase inhibitor cocktails) and centrifuged at 15,000 RPM for 30 min. Supernatant is collected and the pellets were further lysed with 2% SDS in RIPA buffer. Protein concentration was estimated by BCA assay. […] Protein chemiluminescence signal was detected by using ECL kit and quantified using ImageJ software.

Data set [3] has as its system Aβ plaques. The data set is described as follows: Immunohistochemistry of Aβ plaques (4G8 antibody), 3×Tg mice. Conditions: 50 mg/kg oral 7 months. As to the method:
as §1
Brain sections (30 μm) were cut on a microtome and stored at 4° C. in PBS+0.1% sodium azide. Sections were permeabilized for 10 min with cold PBS containing 0.5% Triton X-100 and blocked with 3% bovine serum albumin for 1 h at room temperature.

The subject of data set [4] is 3×Tg mice. The data set is described as follows: Morris-water maze. Particulars: 50 mg/kg oral 7 months. The procedure:
Homozygous 3×Tg mice (APP KM670/671NL (Swedish), MAPT P301L, PSEN1 M146V) were produced in Hong Kong Baptist University animal house and maintained at 23±2° C. temperature, 60±15% relative humidity with free access to food and water ad libitum. Seven months old WT (129/SvJ, n=6 for male mice; n=10 for female mice) and 3×Tg mice (n=6 for male mice; n=10 for female mice) were treated daily with vehicle (1% CMC-Na; Sigma-Aldrich, C5678]), curcumin analogue C1 (2.5 mg/kg, 5 mg/kg, 10 mg/kg) or curcumin (50 mg/kg; Sigma-Aldrich, 08511) suspended in 1% CMC-Na by oral gavage for 7 months. 3×Tg mice were treated with the indicated compounds for 7 months and Morris-water maze (MWM) was used to evaluate the spatial learning memory. MWM is a circular water (21±1° C.) container with 1 meter diameter. Animals were pre-quarantined and acclimatized to the experimenting room at least 1 week before the start of the experiment. The experiment was started with one day visual platform trial. Each mouse underwent 4 visible platform trails (each trial 60 seconds) with different platform placement, positioned above the water level. Hidden platform training was conducted after mixing a non-toxic paint in the water. Mice were trained for 6 continuous days, each day composed of different session with 4 hidden platform trials (each trial 60 seconds). Each session was designed with randomized animal introduction pattern into the water maze with unchanged platform position. Each trial was conducted with 30 min inter-trial interval and provided with external cues. To assess the long term spatial memory retrieval a probe trial (60 seconds) was conducted 24 h after the last training session. During probe trial water maze was divided into 4 quadrants. The hidden platform in the target quadrant was removed after determining its location. Ethnovision XT software was used to observe and record the swimming pattern. During hidden platform training sessions, time spent to find the platform was taken as a parameter to evaluate memory acquisition. In probe trial percentage of time spent in the target quadrant compared to the other 3 quadrants was calculated.

Data set [5] deals with 3×Tg mice. The data set is described as follows: Open-field test. Conditions: 3×Tg mice, 50 mg/kg oral 7 months. As to the method:
Homozygous 3×Tg mice (APP KM670/671NL (Swedish), MAPT P301L, PSEN1 M146V) were produced in Hong Kong Baptist University animal house and maintained at 23±2° C. temperature, 60±15% relative humidity with free access to food and water ad libitum. Seven months old WT (129/SvJ, n=6 for male mice; n=10 for female mice) and 3×Tg mice (n=6 for male mice; n=10 for female mice) were treated daily with vehicle (1% CMC-Na; Sigma-Aldrich, C5678]), curcumin analogue C1 (2.5 mg/kg, 5 mg/kg, 10 mg/kg) or curcumin (50 mg/kg; Sigma-Aldrich, 08511) suspended in 1% CMC-Na by oral gavage for 7 months. 3×Tg mice were treated with the indicated compounds for 7 months and then the open-field test was performed to evaluate the exploratory behavior in novel environment. The experiment was conducted 30 min after last dosing time. Mice placed in the center of an empty open field (25 cm×25 cm) were allowed to explore the environment for 5 min without any external disturbance. Ethnovision XT software was used to measure the patterns of movement, time spent in the center and margin, velocity, distance traveled as indicators of agility and exploration.

The subject of data set [6] is APP, APP CTFs, Aβ, LC3-II. In words: Western blotting of brain tissue, 5×FAD mice. The procedure: 5×FAD male mice were inbred with wild-type (WT, C57/BL6) female mice to produce heterozygous offspring. Offspring were genotyped to select 5×FAD (APP KM670/671NL (Swedish), APP I716V (Florida), APP V717I (London), PSEN1 M146L (A>C), PSEN1 L286V) gene mutations mice.
as §2
In general terms: A western blot detects proteins with antibodies after separation by electrophoresis.

Data set [7] is described as follows: Pharmacokinetic study in mice, oral (brain and blood levels by LC/MS/MS). Particulars: male, mouse, C57BL/6 mice, oral 10 mg/kg, brain.
Setting [8] is: 5×FAD mice, male and female, 50 mg/kg oral 4 months.

Take `COc1cc(/C=C/C(=O)CC(=O)/C=C/c2ccc(O)c(OC)c2)ccc1O` [curcumin, Curcumin, reference compound]: the “freezing index (memory reconsolidation) vs vehicle” value in data set [1] was “significant memory reconsolidation”. In addition, the CTFs result in data set [2] is “no significant reduction”. Further, the “levels of phosphorylated Tau (PHF1, AT8)” value in data set [2] (hippocampus) is “significantly decreased”. In data set [3], the Aβ load entry is on record as “no significant reduction”. In addition, the “percentage of time spent in the target quadrant, probe trial, vs vehicle” value in data set [4] is “significantly increased”. The “improvement in the open field test” value in data set [5] is on record as “no significant improvement”. Moreover, in data set [6] (setting [8]), the “LC3-II levels in brain (autophagy enhancement)” value is “increase in LC3-II levels”, the “levels of A3 in brain” value is on record as “significantly reduced” and the “levels of APP CTFs in brain” value was “significantly reduced”. In data set [6] (female 5×FAD mice, oral 4 months), the “Fl-APP levels in brain” value is on record as “reduced Fl-APP levels”. Besides, the Tmax in data set [7] was 1 h. Besides, the Cmax in data set [7] (read-out: maximum concentration (Cmax) in the brain) stood at 73.77 ± 0.24 ng/g.

Values taken from US10987319B2, “TFEB activator C1 ameliorates app and tau pathology and rescues cognitive deficits in neurodegenerative diseases” (Hong Kong Baptist University, priority 2018, dated 2021).
